One series deals with trypsin. Briefly: stability towards proteolysis by trypsin in human serum. It is filed as in vitro ADME. The following applies: human serum, 37° C., 180 mins; read-out: AMOUNT RECOVERED % after 180 mins. On the procedure:
(§1) The effects of trypsin present in human serum on Polymyxin "B" and the peptides of invention was determined by combining 10 μl of human serum with 20 μg of the given peptide in 10 μl volume and holding the mixture at a temperature of 37° C. for different intervals of time. At various times, an aliquot of the mixture was processed by HPLC analysis in order to detect the residual amount of the investigated peptide. In Table VI the half-lives time of each peptide investigated are shown as compared to the half-life time of Polymyxin "B".

Another series relates to trypsin in human serum. Described as above. It is filed as in vitro ADME. On the procedure:
as §1

Series [1] in a line: prevention of endotoxin-induced death in CD1 mice sensitized with Actinomycin D. The class given is in vivo, mice (Strain CD1). The following applies: 0.1 mg/mouse i.v., 1 μg endotoxin i.p.; for Mice surviving: 20 mice per group. On the procedure:
Prevention of endotoxin-induced death in mice, has been achieved by intravenous injection of the peptides of the invention. For this experiment, a strain of mice highly sensitive to the lethal activity of bacterial endotoxin has been used. Mice sensitized with Actinomycin D (Strain CD1) show a high sensitivity to extremely low doses of endotoxin. A dose as low as 1 μg of endotoxin per mouse (about 40 μg/kg of body weight) is able to completely kill a population of mice within 24-48 hours.
Groups of 20 mice CD1 have been treated intravenously with the peptides of the invention, with a single dose of 0.1 mg peptide, solubilized in sterile saline, per mouse. Thirty minutes later, mice were challenged by intraperitoneal injection of 1 μg of endotoxin purified from E. Coli strain 055-B5. Surviving mice were recorded every 24 hours during a seven days-period of observation. […] Negative controls received an intravenous injection of saline.
There were 20 mice per group. Mice surviving at each of the seven 24 hours observation periods are listed. The % survival appears in parenthesis. P expresses the level of statistical significance calculated by "t-Test" for each molecule compared to the treatment with saline, considering the total survival rate in each group.

For another series, the target named is Avidin (Gallus gallus, UniProt P02701). The following applies: cited from earlier work.

Bridge positions count the residues as written; N and C are the ends. Ends that are not written are not given here. Peptide text beside a SMILES is read from it. * marks the point of attachment. Biotin = O=C1N[C@H]2[C@H](CS[C@H]2CCCCC(=O)*)N1

Sequence of Avidin (P02701 25-152, species assumed): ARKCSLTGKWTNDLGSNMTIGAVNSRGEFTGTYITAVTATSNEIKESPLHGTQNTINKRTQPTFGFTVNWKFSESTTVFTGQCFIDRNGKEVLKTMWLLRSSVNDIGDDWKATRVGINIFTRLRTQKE

Regarding KFLKFLK [Peptide IX], the remaining at 3 h, 1 mg/mL in the series on trypsin was 0%. For the same compound, the “Half-Life Time (t/2)” value in the series on trypsin in human serum (human serum, 37° C.) worked out at 10 min.

As to `CC(C)C[C@@H]1NC(=O)[C@H](Cc2ccccc2)NC(=O)[C@H](CCCCN)NC(=O)[C@@H](N)CSSC[C@@H](C(=O)O)NC(=O)[C@H](CCCCN)NC(=O)[C@H](CCCCN)NC1=O` [Peptide I] (H-CKFLKKC-OH; disulfide 1-7), the remaining at 3 h, 1 mg/mL with trypsin came to 70%. For the same compound, the “Half-Life Time (t/2)” value in the series on trypsin in human serum (human serum, 37° C.) is given as over 180 min.

In the case of `CC(C)C[C@@H]1NC(=O)[C@H](Cc2ccccc2)NC(=O)[C@H](CCCCN)NC(=O)[C@@H](NC(=O)[C@H](CCCCN)NC(=O)[C@@H](NC(=O)[C@@H](N)CCCCN)[C@@H](C)O)CSSC[C@@H](C(=O)O)NC(=O)[C@H](CCCCN)NC(=O)[C@H](CCCCN)NC1=O` [Peptide II] (H-KTKCKFLKKC-OH; disulfide 4-10), in the series on trypsin, the remaining at 3 h, 1 mg/mL was 10%. Further, the “Half-Life Time (t/2)” value in the series on trypsin in human serum (human serum, 37° C.) is listed as 50 min.

Turning to `CC(C)C[C@@H]1NC(=O)[C@H](CCCCN)NC(=O)[C@H](CCCCN)NC(=O)[C@@H](N)CSSC[C@@H](C(=O)N[C@@H](CCCCN)C(=O)N[C@H](C(=O)O)[C@@H](C)O)NC(=O)[C@H](CCCCN)NC(=O)[C@H](Cc2ccccc2)NC1=O` [Peptide V] (H-CKKLFKCKT-OH; disulfide 1-7), the remaining at 3 h, 1 mg/mL with trypsin was determined as 55%. Further, the “Half-Life Time (t/2)” value in the series on trypsin in human serum (human serum, 37° C.) amounted to 240 min.

For IKTKKFLKKT [Peptide VII], the remaining at 3 h, 1 mg/mL in the series on trypsin amounted to 28%. The “Half-Life Time (t/2)” value in the series on trypsin in human serum (human serum, 37° C.) turned out to be 50 min.

Take `CC[C@H](C)[C@H](NC(=O)CCCC[C@@H]1SC[C@@H]2NC(=O)N[C@@H]21)C(=O)N[C@@H](CCCCN)C(=O)N[C@H](C(=O)N[C@@H](CCCCN)C(=O)N[C@H]1CSSC[C@@H](C(=O)O)NC(=O)[C@H](CCCCN)NC(=O)[C@H](CCCCN)NC(=O)[C@H](CC(C)C)NC(=O)[C@H](Cc2ccccc2)NC(=O)[C@H](CCCCN)NC1=O)[C@@H](C)O` [labeled Peptide VI] (Biotin-IKTKCKFLKKC-OH; disulfide 5-11): the “Half-Life Time (t/2)” value with trypsin in human serum (human serum or human whole blood, not significantly different from the unlabeled value) was about 1200 min.

For `CN(C)CCCN1c2ccccc2Sc2ccc(Cl)cc21` [CPZ, Chlorpromazine], the “% survival” value in series [1] (24 hs), in series [1] (48 hs), in series [1] (72 hs), in series [1] (96 hs), in series [1] (120 hs) and in series [1] (144 hs) was 50% throughout. Besides, the “% survival” value in series [1] (168 hs) was found to be 50%. Moreover, the Mice surviving in series [1] (24 hs), in series [1] (48 hs), in series [1] (72 hs), in series [1] (96 hs), in series [1] (120 hs) and in series [1] (144 hs) was 10 throughout. The Mice surviving in series [1] (168 hs) came to 10.

`O=C(O)CCCC[C@@H]1SC[C@@H]2NC(=O)N[C@@H]21` [Biotin]: on Avidin, the “K of the reaction with Avidin” value is given as 10^15.

For RYVRYVRYV [Peptide X], the remaining at 3 h, 1 mg/mL in the series with trypsin was 0%. Moreover, the “Half-Life Time (t/2)” value in the series on trypsin in human serum (human serum, 37° C.) amounted to 35 min.

As for `CC(C)C[C@@H]1NC(=O)[C@H](CCCCN)NC(=O)[C@H](CCCCN)NC(=O)[C@@H](N)CSSC[C@@H](C(=O)N[C@@H](CCCCN)C(=O)N[C@H](C(=O)N[C@@H](CCCCN)C(=O)O)[C@@H](C)O)NC(=O)[C@H](CCCCN)NC(=O)[C@H](Cc2ccccc2)NC1=O` [Peptide IV] (H-CKKLFKCKTK-OH; disulfide 1-7), the remaining at 3 h, 1 mg/mL with trypsin stood at 0%. Further, in the series with trypsin in human serum (human serum, 37° C.), the “Half-Life Time (t/2)” value is recorded as 18 min.

As to `CC[C@H](C)[C@H](N)C(=O)N[C@@H](CCCCN)C(=O)N[C@H](C(=O)N[C@@H](CCCCN)C(=O)N[C@H]1CSSC[C@@H](C(=O)O)NC(=O)[C@H](CCCCN)NC(=O)[C@H](CCCCN)NC(=O)[C@H](CC(C)C)NC(=O)[C@H](Cc2ccccc2)NC(=O)[C@H](CCCCN)NC1=O)[C@@H](C)O` [Peptide VI] (H-IKTKCKFLKKC-OH; disulfide 5-11), in the series on trypsin, the remaining at 3 h, 1 mg/mL is 76%. Also, in the series on trypsin in human serum (human serum, 37° C.), the “Half-Life Time (t/2)” value is on record as 1,080 min.

In the case of IKFLKFLKFLK [Peptide VIII], the remaining at 3 h, 1 mg/mL with trypsin is 0%. Besides, the “Half-Life Time (t/2)” value with trypsin in human serum (human serum, 37° C.) came to 7 min.
